In patent publication US20150164957A1, “CONVERSION OF CARDIOMYOCYTES INTO FAST CONDUCTING CARDIOMYOCYTES OR SLOW CONDUCTING NODAL CELLS” (The University of Chicago, priority 2012, published 2015):

Assays:
[1] = system: Nav1.8; conditions: after administration of A-803467; cited from earlier work
[2] = target: Nav1.8 (Homo sapiens, UniProt Q9Y5Y9); conditions: at the dose used; cited from earlier work
[3] = system: tamoxifen-treated Tbx5^minKCreERT2 and Tbx5^fl/fl mice; experiment: Invasive EP studies (intracardiac recordings) following atropine administration; type: in vivo, mouse; conditions: for AH (AtrioHisian interval) / HV (Hisioventricular interval) / Hd (His interval duration) / SCL (sinus cycle length): Post-Atropine (20 mg/kg), Mean +/- SD
Protocol: Electrophysiology Studies. Electrophysiology studies were performed in collaboration with Fang Liu, Kurt Schillinger, and Vic Patel at The University of Pennsylvania. Detailed protocols for in vivo electrophysiology studies have been previously described (Liu, et al., 2008). 10-12 week old mice were anesthetized with pentobarbital (33 mg/kg ip) and a 1.1-Fr octapolar electrode catheter (Millar; EPR-800) was advanced via a right jugular venous cut-down to record right atrial, His bundle, right ventricular potentials and perform programmed electrical stimulation. For studies involving atropine, surface ECG and intracardiac recordings were obtained, then repeated after mice were injected with 20 mg/kg atropine.
The autonomic nervous system can play an important role in modulating cardiac conduction. Specifically, activation of the sympathetic nervous system can increase heart rate, contractility, and accelerate conduction through the AV node, while parasympathetic stimulation via the vagus nerve can act at the SA and AV nodes to decrease heart rate and slow AV conduction. To determine whether slowed conduction in Tbx5^minkCreERT2 mice was secondary to increased vagal tone, the inventors administered atropine, a cholinergic antagonist, to tamoxifen-treated Tbx5^minKCreERT2 and Tbx5^fl/fl mice and evaluated conduction intervals by EP studies.

[4] = system: Mice with hyperactivation of Nav1.8; conditions: cited from earlier work

Chain of Nav1.8 (Homo sapiens, UniProt Q9Y5Y9) (Q9Y5Y9 whole entry): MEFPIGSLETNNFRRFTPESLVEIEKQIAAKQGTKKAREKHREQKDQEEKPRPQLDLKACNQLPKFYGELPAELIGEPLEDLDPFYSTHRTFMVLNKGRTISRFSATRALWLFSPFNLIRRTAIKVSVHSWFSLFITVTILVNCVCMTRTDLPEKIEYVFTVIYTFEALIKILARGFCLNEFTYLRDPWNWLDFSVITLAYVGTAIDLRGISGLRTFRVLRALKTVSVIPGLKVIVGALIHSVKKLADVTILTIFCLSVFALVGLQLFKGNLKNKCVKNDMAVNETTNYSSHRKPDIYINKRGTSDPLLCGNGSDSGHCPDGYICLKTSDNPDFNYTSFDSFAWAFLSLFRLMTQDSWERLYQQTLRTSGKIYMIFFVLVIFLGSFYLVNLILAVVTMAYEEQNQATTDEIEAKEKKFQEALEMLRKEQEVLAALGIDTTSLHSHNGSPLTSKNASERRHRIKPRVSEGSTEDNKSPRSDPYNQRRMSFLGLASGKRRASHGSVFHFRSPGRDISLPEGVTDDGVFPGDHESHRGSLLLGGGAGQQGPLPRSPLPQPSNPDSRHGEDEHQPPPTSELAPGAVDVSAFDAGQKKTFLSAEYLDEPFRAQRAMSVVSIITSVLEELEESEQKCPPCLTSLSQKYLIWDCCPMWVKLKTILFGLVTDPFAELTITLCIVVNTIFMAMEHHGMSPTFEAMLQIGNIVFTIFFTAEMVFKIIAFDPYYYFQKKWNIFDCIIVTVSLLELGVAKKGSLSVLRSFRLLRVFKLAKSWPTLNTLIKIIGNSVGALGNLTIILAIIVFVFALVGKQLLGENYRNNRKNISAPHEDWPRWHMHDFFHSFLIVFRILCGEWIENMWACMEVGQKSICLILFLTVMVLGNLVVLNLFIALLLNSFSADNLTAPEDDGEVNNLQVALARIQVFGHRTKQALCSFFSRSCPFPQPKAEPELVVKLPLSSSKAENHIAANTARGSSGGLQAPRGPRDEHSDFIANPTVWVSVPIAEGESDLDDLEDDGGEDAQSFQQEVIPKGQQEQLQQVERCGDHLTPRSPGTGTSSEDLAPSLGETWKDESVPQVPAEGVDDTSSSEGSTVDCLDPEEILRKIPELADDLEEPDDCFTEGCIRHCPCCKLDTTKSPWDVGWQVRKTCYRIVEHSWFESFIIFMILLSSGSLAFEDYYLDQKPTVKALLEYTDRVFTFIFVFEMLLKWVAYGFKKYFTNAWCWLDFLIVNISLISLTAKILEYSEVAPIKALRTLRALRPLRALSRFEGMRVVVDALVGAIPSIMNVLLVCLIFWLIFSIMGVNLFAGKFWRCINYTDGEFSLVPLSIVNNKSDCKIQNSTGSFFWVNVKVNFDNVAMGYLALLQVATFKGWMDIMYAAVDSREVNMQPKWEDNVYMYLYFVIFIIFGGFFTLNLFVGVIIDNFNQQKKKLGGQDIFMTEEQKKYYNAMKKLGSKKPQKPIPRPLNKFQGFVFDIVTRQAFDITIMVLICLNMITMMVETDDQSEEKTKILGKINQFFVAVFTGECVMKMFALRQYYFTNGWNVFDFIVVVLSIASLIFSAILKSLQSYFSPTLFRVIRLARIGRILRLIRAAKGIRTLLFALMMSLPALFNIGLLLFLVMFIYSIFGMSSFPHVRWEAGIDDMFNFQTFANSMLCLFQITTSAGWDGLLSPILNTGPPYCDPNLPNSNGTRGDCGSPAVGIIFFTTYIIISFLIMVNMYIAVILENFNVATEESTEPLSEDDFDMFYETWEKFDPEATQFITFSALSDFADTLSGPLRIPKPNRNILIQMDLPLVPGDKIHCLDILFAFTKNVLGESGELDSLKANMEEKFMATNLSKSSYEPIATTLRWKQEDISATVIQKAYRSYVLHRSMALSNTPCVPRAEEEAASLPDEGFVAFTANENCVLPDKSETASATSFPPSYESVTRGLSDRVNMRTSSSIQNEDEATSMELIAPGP

Compound | H-V interval [1] | P-R interval [1] | QRS interval [1] | Activity against Nav1.8 relative to Nav1.5 [2] [fold] | AH (AtrioHisian interval) ([3]; Tbx5^fl/fl mice (n = 3)) [ms] | HV (Hisioventricular interval) ([3]; Tbx5^fl/fl mice (n = 3)) [ms] | Hd (His interval duration) ([3]; Tbx5^fl/fl mice (n = 3)) [ms] | SCL (sinus cycle length) ([3]; Tbx5^fl/fl mice (n = 3)) [ms] | AH (AtrioHisian interval) ([3]; Tbx5^minKCreERT2 mice (n = 3)) [ms] | HV (Hisioventricular interval) ([3]; Tbx5^minKCreERT2 mice (n = 3)) [ms] | Hd (His interval duration) ([3]; Tbx5^minKCreERT2 mice (n = 3)) [ms] | SCL (sinus cycle length) ([3]; Tbx5^minKCreERT2 mice (n = 3)) [ms] | Effect of cholinergic blockade on conduction ([3]; Tbx5^minKCreERT2 or Tbx5^fl/fl mice, EP studies) | Effect on sinus bradycardia following scruffing [4]
COc1cc(NC(=O)c2ccc(-c3ccc(Cl)cc3)o2)cc(OC)c1 [A-803467] | increased | increased | increased | 100 | – | – | – | – | – | – | – | – | – | –
CN1[C@@H]2CC[C@H]1C[C@@H](OC(=O)C(CO)c1ccccc1)C2 (some centres unmarked) [Atropine, atropine] | – | – | – | – | 28.0 ± 9.9 | 9.0 ± 3.2 | 3.7 ± 1.5 | 141.3 ± 30.9 | 35.7 ± 3.6 | 26.0 ± 2.4 | 11.7 ± 2.5 | 146.3 ± 11.6 | did not result in accelerated conduction | blocked
